In ChEMBL document CHEMBL6103561, “Chemical dissection of selective myeloid leukemia-1 inhibitors: How they were found and evolved” (Eur J Med Chem, 2025):
In brackets after ≈: the same amount, converted by molar mass. Blank lines part the entries; values can stand above or below the compound they belong to.

Experiments:
MOLP-8 = assay: Antiproliferative activity against human MOLP8 cells
[1] = biological target: T1, Induced myeloid leukemia cell differentiation protein Mcl-1 (Homo sapiens, UniProt Q07820)
Description: Binding affinity to MCL-1 (unknown origin) assessed as inhibition constant

[2] = Solubility of compound in water at pH 7 measured after 24 hrs by HPLC analysis
OPM-2 = assay: Antiproliferative activity against human OPM-2 cells
[3] = biological target: T1, Induced myeloid leukemia cell differentiation protein Mcl-1; remark: listed apart in the source
NCI-H929 [4] = assay: Antiproliferative activity against human NCI-H929 cells assessed as reduction in cell viability
[5] = biological target: T1, Induced myeloid leukemia cell differentiation protein Mcl-1; remark: listed apart in the source
Description: Binding affinity to MCL-1 (unknown origin) assessed as inhibition constant by TR-FRET assay

HL-60 [6] = assay: Growth inhibition of human HL-60 cells
[7] = biological target: T1, Induced myeloid leukemia cell differentiation protein Mcl-1; remark: listed apart in the source
Description: Binding affinity to MCL-1 (unknown origin) assessed as inhibition constant by fluorescence polarization assay

[8] = biological target: Voltage-gated inwardly rectifying potassium channel KCNH2 (Homo sapiens, UniProt Q12809)
[9] = Antiproliferative activity against human BL-2 cells; details: BL2
MV4-11 [10] = assay: Antiproliferative activity against human MV4-11 cells
[11] = biological target: T2, Apoptosis regulator Bcl-2 (Homo sapiens, UniProt P10415); assay: Binding affinity to BCL-2 (unknown origin) assessed as inhibition constant incubated for 60 mins by TR-FRET assay
Bcl-2-like protein 1 [12] = biological target: T3, Bcl-2-like protein 1 (Homo sapiens, UniProt Q07817); assay: Binding affinity to BCL-XL (unknown origin) assessed as inhibition constant incubated for 60 mins by TR-FRET assay
[13] = biological target: T2, Apoptosis regulator Bcl-2
Description: Inhibition of Bcl-2 (unknown origin) by fluorescence polarization assay

Bcl-2-like protein 1 [14] = biological target: T3, Bcl-2-like protein 1
[15] = biological target: T1, Induced myeloid leukemia cell differentiation protein Mcl-1; assay: Binding affinity to N-terminal MCL-1 (unknown origin) using 5-FAM peptide as substrate by fluorescence polarization assay
HL-60 [16] = assay: Cytotoxicity against human HL-60 cells assessed as reduction in cell viability incubated for 48 hrs by CCK-8 assay; details: HL-60, 48 h
[17] = biological target: T1, Induced myeloid leukemia cell differentiation protein Mcl-1; remark: listed apart in the source
Description: Inhibition of MCL-1 (unknown origin)

Bcl-2-like protein 1 [18] = biological target: T3, Bcl-2-like protein 1; remark: listed apart in the source
Description: Inhibition of Bcl-XL (unknown origin) by FRET assay

[19] = biological target: T2, Apoptosis regulator Bcl-2; remark: listed apart in the source
Description: Binding affinity to BCL-2 (unknown origin) as assessed as inhibition constant

[20] = biological target: T1, Induced myeloid leukemia cell differentiation protein Mcl-1; remark: listed apart in the source
Bcl-2-like protein 1 [21] = biological target: T3, Bcl-2-like protein 1; assay: Binding affinity to BCL-XL (unknown origin) assessed as inhibition constant
NCI-H929 [22] = assay: Growth inhibition of human NCI-H929 cells
[23] = Clearance in mouse at 1 mg/kg, iv; details: in vivo
in vivo = details: mouse
Bcl-2-like protein 1 [24] = biological target: T3, Bcl-2-like protein 1; assay: Binding affinity to Bcl-XL (unknown origin) assessed as inhibition constant by fluorescence polarization assay
MV4-11 [25] = assay: Antiproliferative activity against human MV4-11 cells assessed as reduction in cell viability
[26] = biological target: T1, Induced myeloid leukemia cell differentiation protein Mcl-1; remark: listed apart in the source
Description: Inhibition of N-terminal GST-tagged human MCL-1 (1 to 23 residues) extracted from Escherichia coli BL21 (DE3) by TR-FRET assay

T1 sequence (Q07820 whole entry): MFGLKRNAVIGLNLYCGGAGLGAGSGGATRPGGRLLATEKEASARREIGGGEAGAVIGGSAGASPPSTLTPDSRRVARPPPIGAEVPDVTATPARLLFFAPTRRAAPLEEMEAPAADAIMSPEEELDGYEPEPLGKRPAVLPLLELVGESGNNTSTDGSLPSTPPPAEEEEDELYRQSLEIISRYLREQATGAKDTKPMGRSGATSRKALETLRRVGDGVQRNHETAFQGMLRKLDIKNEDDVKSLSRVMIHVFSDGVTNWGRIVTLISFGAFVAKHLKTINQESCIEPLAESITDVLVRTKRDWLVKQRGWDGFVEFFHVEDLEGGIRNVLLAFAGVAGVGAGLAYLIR
Chain of Voltage-gated inwardly rectifying potassium channel KCNH2 (Q12809 whole entry): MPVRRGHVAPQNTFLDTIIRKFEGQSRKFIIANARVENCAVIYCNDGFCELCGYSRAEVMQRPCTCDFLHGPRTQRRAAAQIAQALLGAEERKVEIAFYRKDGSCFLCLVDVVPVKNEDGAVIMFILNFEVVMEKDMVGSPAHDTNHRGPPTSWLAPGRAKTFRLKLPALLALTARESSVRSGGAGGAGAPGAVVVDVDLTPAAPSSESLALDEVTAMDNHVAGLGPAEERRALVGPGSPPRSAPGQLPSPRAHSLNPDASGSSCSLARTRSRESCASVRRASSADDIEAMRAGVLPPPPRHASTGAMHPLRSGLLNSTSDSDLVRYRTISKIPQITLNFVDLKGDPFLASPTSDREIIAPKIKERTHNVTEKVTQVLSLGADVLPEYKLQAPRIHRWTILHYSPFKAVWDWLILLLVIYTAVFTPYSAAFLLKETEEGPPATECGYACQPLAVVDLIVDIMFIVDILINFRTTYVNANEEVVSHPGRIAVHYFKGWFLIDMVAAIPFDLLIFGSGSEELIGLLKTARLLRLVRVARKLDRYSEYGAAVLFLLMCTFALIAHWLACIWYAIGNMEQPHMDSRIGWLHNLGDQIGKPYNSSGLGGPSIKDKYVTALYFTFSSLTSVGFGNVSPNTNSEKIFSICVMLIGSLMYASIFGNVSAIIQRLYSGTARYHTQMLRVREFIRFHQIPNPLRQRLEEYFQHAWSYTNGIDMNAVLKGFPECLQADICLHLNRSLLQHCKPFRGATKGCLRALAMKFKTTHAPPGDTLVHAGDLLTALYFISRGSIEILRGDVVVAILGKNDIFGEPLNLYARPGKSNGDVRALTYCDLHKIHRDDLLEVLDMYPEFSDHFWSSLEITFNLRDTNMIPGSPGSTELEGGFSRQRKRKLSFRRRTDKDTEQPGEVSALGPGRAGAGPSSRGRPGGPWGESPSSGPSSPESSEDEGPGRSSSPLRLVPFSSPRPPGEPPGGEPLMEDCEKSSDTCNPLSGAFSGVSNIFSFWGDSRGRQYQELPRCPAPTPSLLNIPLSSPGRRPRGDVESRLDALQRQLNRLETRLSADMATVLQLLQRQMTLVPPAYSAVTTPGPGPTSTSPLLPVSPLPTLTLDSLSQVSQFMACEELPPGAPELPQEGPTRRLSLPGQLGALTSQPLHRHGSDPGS
T2 sequence (P10415 whole entry): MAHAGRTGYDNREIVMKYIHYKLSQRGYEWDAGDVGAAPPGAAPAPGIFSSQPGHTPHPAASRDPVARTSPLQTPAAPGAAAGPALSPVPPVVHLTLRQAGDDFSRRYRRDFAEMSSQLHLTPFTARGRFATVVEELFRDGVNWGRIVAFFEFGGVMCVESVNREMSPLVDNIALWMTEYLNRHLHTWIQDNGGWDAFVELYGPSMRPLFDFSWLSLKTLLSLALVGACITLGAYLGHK
T3 sequence (Q07817 whole entry): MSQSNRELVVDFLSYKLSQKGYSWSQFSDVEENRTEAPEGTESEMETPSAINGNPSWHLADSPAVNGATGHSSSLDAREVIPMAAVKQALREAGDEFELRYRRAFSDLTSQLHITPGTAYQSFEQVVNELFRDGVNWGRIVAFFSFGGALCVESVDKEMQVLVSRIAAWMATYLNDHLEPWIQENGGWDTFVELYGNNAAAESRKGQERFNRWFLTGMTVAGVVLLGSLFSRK

Ki [1]: > 100000 nM
Structure (SMILES): O=S(=O)(Nc1cc(Sc2ccco2)c(O)c2ccccc12)c1cccs1

solubility at 24 h [2]: 11.2 µM (≈ 7.25 µg/mL)
Structure (SMILES): CO[C@@H]1/C(F)=C/C[C@H](C)[C@@H](C)S(=O)(=O)NC(=O)c2ccc3c(c2)N(C[C@@H]2CCO[C@H]21)C[C@@]1(CCCc2cc(Cl)ccc21)CO3
IC50 (OPM-2): 1120 nM

IC50 (NCI-H929 [4]): 40 nM | Ki [5]: 0.01 nM
Structure (SMILES): Cc1c(Cl)c2c(Cl)c(C)c1-c1c(-c3ccc(F)cc3)sc3ncnc(c13)O[C@@H](C(=O)O)Cc1cc(ccc1OCc1ccnc(-c3ccc(OC[C@H]4COCCO4)cc3)n1)OCC(CN1CCN(C)CC1)O2 (some centres not stated)

Ki [7]: 300 nM
Structure (SMILES): CC1(C)CC[C@@H](OC(=O)/C=C/c2ccccc2)[C@]2(C)C(C=O)C(C=O)=C[C@H](O)[C@@]12C (some centres not stated)
IC50 [8]: > 10000 nM | IC50 [9]: 4000 nM

solubility at 24 h [2]: 520 µM (≈ 393 µg/mL)
Structure (SMILES): COc1n[nH]cc1C(=O)NS1(=O)=NC(=O)c2ccc3c(c2)N(C[C@@H]2CCO[C@H]2[C@H](OC)/C(F)=C/C[C@H](C)C1)C[C@@]1(CCCc2cc(Cl)ccc21)CO3 (some centres not stated)
IC50 (OPM-2): 44 nM

EC50 (MV4-11 [10]): 1860 nM | Ki [11]: 132 nM | Ki (Bcl-2-like protein 1 [12]): > 660 nM
Structure (SMILES): Cc1nn(C)c(COc2ccc(N3CCN(S(=O)(=O)N(C)C)CC3)cc2)c1-c1cccc2c(CCCOc3cccc4ccccc34)c(C(=O)O)n(CCN3CCOCC3)c12

Ki (Bcl-2-like protein 1 [12]): 0.015 nM | solubility at 24 h [2]: 3140 µM (≈ 2340 µg/mL)
Structure (SMILES): COCCOCn1nc(C)c2c1CSCc1cc(n(C)n1)CCc1cc(c3ccc(F)cc3c1)OCCCn1c(C(=O)O)c(C)c3c-2c(Cl)ccc31
IC50 [8]: > 30000 nM

Ki (Bcl-2-like protein 1 [12]): 0.018 nM | solubility at 24 h [2]: 580 µM (≈ 443 µg/mL)
Structure (SMILES): COCCOCc1nn(C)c2c1CSCc1cc(n(C)n1)CSc1cc(c3ccc(F)cc3c1)OCCCc1c(C(=O)O)n(C)c3c-2c(Cl)ccc13
IC50 [8]: > 30000 nM

IC50 [3]: 14 nM
Structure (SMILES): Cc1ccc(S(=O)(=O)/N=C2/C=C(Sc3nc[nH]n3)C(=O)c3ccccc32)cc1

Ki [1]: 8850 nM | Ki [19]: 12900 nM
Structure (SMILES): Cc1cc(OCCCn2ccc3cc(C(=O)O)ccc32)cc(C)c1Cl

Ki (Bcl-2-like protein 1 [21]): > 660 nM | Ki [1]: 5.54 nM | Ki [19]: > 1200 nM
Structure (SMILES): COc1ccccc1-c1nccc(COc2ccc3cc2C[C@H](C(=O)O)Oc2ncnc4sc(-c5ccc(F)cc5)c(c24)-c2ccc(c(Cl)c2C)CN(CCN2CCN(C)CC2)CO3)n1

IC50 (Bcl-2-like protein 1 [14]): > 100000 nM
Structure (SMILES): O=C(O)CSc1ccc(C(=O)c2[nH]c(Cl)c(Cl)c2-n2c(C(=O)c3ccc(SCC(=O)O)cc3O)cc(Cl)c2Cl)c(O)c1

solubility at 24 h [2]: < 0.1 µM
Structure (SMILES): CO[C@H]1/C=C/C[C@H](C)[C@@H](C)S(=O)(=O)NC(=O)c2ccc3c(c2)N(C[C@@H]2CCO[C@H]21)C[C@@]1(CCCc2cc(Cl)ccc21)CO3
IC50 (OPM-2): 432 nM

Ki [5]: 1 nM
Structure (SMILES): Cc1nn(C)c(C)c1-c1cccc2c(CCCOc3cccc4ccccc34)c(C(=O)O)n(CCN3CCOCC3)c12

Ki [5]: < 0.1 nM | GI50 (NCI-H929 [22]): 300 nM | clearance [23]: 14.7 L/h/kg | half-life (in vivo): 34.2 min
Structure (SMILES): Cc1cc(Cl)cc(C)c1OCCCc1c2n(c3c(-c4c(C)nn(C)c4C)c(Cl)ccc13)CCCN(c1cn(C)c3ccc(C(=O)O)cc13)C2=O

Ki (Bcl-2-like protein 1 [24]): > 1000 nM | Ki [1]: > 1000 nM | Ki [19]: 200 nM
Structure (SMILES): COC1=CC(c2cc3ccccc3[nH]2)=N/C1=C\c1[nH]c(C)cc1C [OBATOCLAX]

IC50 (MV4-11 [25]): 150 nM
Structure (SMILES): CO[C@@]1(CN2CCN3CCCC[C@@H]3C2)/C=C/C[C@H](C)[C@@H](C)S(=O)(=O)NC(=O)c2ccc3c(c2)N(C[C@@H]2CC[C@H]21)C[C@@]1(CCCc2cc(Cl)ccc21)CO3
IC50 (OPM-2): 50 nM

Ki (Bcl-2-like protein 1 [12]): 0.02 nM | solubility at 24 h [2]: 550 µM (≈ 475 µg/mL)
Structure (SMILES): COCCOCc1nn(C)c2c1CSCc1cc(n(C)n1)CSc1cc(c3ccc(F)cc3c1)OCCCc1c(C(=O)O)n(CCN3CCOCC3)c3c-2c(Cl)ccc13
IC50 [8]: > 30000 nM

Ki [1]: 400 nM | Ki [19]: 560 nM
Structure (SMILES): Cc1cc(OCCCn2cc(-c3cccc(C(F)(F)F)c3)c3cc(C(=O)O)ccc32)cc(C)c1Cl

IC50 [1]: 0.05 nM
Structure (SMILES): CC[C@@H]1CC/C=C/[C@H](O)[C@@H]2CC[C@H]2CN2C[C@@]3(CCc4cc(Cl)ccc43)COc3ccc(cc32)C(=O)NS1(=O)=O

Ki [5]: 0.097 nM | GI50 (NCI-H929 [22]): 190 nM
Structure (SMILES): Cc1cc(Cl)cc(C)c1OCCCc1c2n(c3c(-c4c(C)nn(C)c4C)c(Cl)ccc13)[C@H](C)CCN(c1cn(C)c3ccc(C(=O)O)cc13)C2=O

solubility at 24 h [2]: 8.3 µM (≈ 5.37 µg/mL)
Structure (SMILES): CO[C@H]1/C(F)=C/C[C@H](C)[C@@H](C)S(=O)(=O)NC(=O)c2ccc3c(c2)N(C[C@@H]2CCO[C@H]21)C[C@@]1(CCCc2cc(Cl)ccc21)CO3
IC50 (OPM-2): 191 nM

IC50 (MV4-11 [25]): 150 nM
Structure (SMILES): CO[C@H]1/C=C/C[C@H](C)[C@@H](C)S(=O)(=O)NC(=O)c2ccc3c(c2)N(C[C@@H]2CC[C@H]21)C[C@@]1(CCCc2cc(Cl)ccc21)CO3 [TAPOTOCLAX]

Continued, compound first:

Structure (SMILES): Cc1c2c(nn1C)CSCc1cc(n(C)n1)CSc1cc(c3ccccc3c1)OCCCc1c(C(=O)O)n(C)c3c-2c(Cl)ccc13 [AZD-5991]
EC50 (MOLP-8): > 16000 nM

Structure (SMILES): Cc1c(-c2cccc3c(CCCOc4cccc5ccccc45)c(C(=O)O)n(C)c23)c(COc2ccc(B(O)O)c(C=O)c2)nn1C
IC50 [3]: 4200 nM

Structure (SMILES): CC(=O)N1CCN(c2ccc(OCc3cccc(-c4ccc5c(-c6cccc(C(F)(F)F)c6)cn(CCC(=O)O)c5c4)c3)cc2)CC1
Ki [1]: 370 nM | GI50 (HL-60 [6]): 3150 nM

Structure (SMILES): Cc1cc2c(C(C)C)c(O)c(O)cc2c(O)c1-c1c(C)cc2c(C(C)C)c(O)c(O)cc2c1O [APOGOSSYPOL]
IC50 [13]: 2800 nM

Structure (SMILES): CCOP(=O)(OCC)c1ccc(C(=O)c2[nH]c(Cl)c(Cl)c2-n2c(C(=O)c3ccc(P(=O)(OCC)OCC)cc3O)cc(Cl)c2Cl)c(O)c1
IC50 (Bcl-2-like protein 1 [14]): > 100000 nM

Structure (SMILES): Cc1c(-c2cccc3c(CCCOc4cccc5ccccc45)c(C(=O)O)n(C)c23)c(COc2ccc(S(=O)(=O)F)cc2)nn1C
IC50 [3]: 4200 nM

Structure (SMILES): O=C(O)Cn1cc(-c2cc(O)c(C(=O)c3[nH]c(Cl)c(Cl)c3-n3c(C(=O)c4cc(Cl)c(-c5cn(CC(=O)O)nn5)cc4O)cc(Cl)c3Cl)cc2Cl)nn1
IC50 (Bcl-2-like protein 1 [14]): > 50000 nM

Structure (SMILES): Cc1ccc(Oc2ccc(O)c(O)c2)c(-c2ccsc2S(=O)(=O)NCCNC(=O)Nc2cc(C(F)(F)F)cc(C(F)(F)F)c2)c1
Ki [15]: 490 nM | IC50 (HL-60 [16]): 3700 nM

Structure (SMILES): Cc1cc(S(=O)(=O)NC(=O)c2cc(C)c(-c3cccc4c(CCCOc5cccc6ccccc56)c(C(=O)O)nn34)c(C)c2)ccc1N[C@H](CCN(C)C)CSc1ccccc1
IC50 [17]: 8 nM | IC50 (Bcl-2-like protein 1 [18]): 3 nM

Structure (SMILES): CC(C)CN1C[C@@H](c2ccc(Cl)cc2Cl)Oc2ccc(C(=O)O)cc21
IC50 [20]: 55000 nM

Structure (SMILES): Cc1c(-c2cccc3c(CCCOc4cccc5ccccc45)c(C(=O)O)n(C)c23)c(COc2ccccc2)nn1C
IC50 [3]: 4200 nM

Structure (SMILES): COc1ccccc1-c1nccc(COc2ccccc2C[C@@H](Oc2ncnc3sc(-c4ccc(F)cc4)c(-c4ccc(OCCN5CCN(C)CC5)c(Cl)c4C)c23)C(=O)O)n1
IC50 (NCI-H929 [4]): 1 nM

Structure (SMILES): CC(=O)N1CCN(c2ccc(OCc3nn(C)c(C)c3-c3cccc4c(CCCOc5cccc6ccccc56)c(C(=O)O)n(Cc5cccnc5)c34)cc2)CC1
Ki [5]: 1 nM

Structure (SMILES): C#Cc1ccc(OCc2nn(C)c(C)c2-c2cccc3c(CCCOc4cccc5ccccc45)c(C(=O)O)n(C)c23)cc1C=O
IC50 [3]: 4200 nM

Structure (SMILES): O=C(O)CCn1cc(-c2cccc(C(F)(F)F)c2)c2ccc(-c3ccccc3)cc21
Ki [1]: 410 nM | Ki [19]: 2380 nM

Structure (SMILES): CC(C)c1ccccc1Cc1cc(C(=O)Nc2ccc(S(=O)(=O)c3ccccc3C(C)(C)C)cc2)c(O)c(O)c1O
Ki (Bcl-2-like protein 1 [24]): 290 nM

Structure (SMILES): Cc1c(-c2c(-c3ccc(F)o3)sc3ncnc(O[C@H](Cc4ccccc4OCc4ccnn4CC(F)(F)F)C(=O)O)c23)ccc(OCCN2CCN(C)CC2)c1Cl
IC50 (NCI-H929 [4]): 1 nM

Structure (SMILES): O=C(c1ccccc1O)c1[nH]c(Cl)c(Cl)c1-n1c(C(=O)c2ccccc2O)cc(Cl)c1Cl
IC50 (Bcl-2-like protein 1 [14]): > 100000 nM | IC50 [26]: 10100 nM
